# Measurements from patent US10550079B2, “Artificial self-sufficient cytochrome P450s” (University of Florida Research Foundation, Incorporated, priority 2015, dated 2020).
# Entries after “also recorded” stand apart in the source; their conditions may differ.
# How the values were obtained:
# [1] = target: T1, TxtE-BM3R (UniProt C9ZDC6+P14779); assay: Substrate binding affinity by UV-Vis spectral titration, TxtE-BM3R; design: species or system S. scabies 87.22 / B. megaterium ATCC 14581; conditions: for binding affinity lowered compared with native substrate L-tryptophan: TxtE-BM3R; for Kd: […] enzyme, 25 mM Tris-HCl pH 8.0, for 4-F-DL-tryptophan total concentration of the racemic mixture used; for binding affinity to TxtE-BM3R compared with TxtE: tighter/higher than to TxtE
# T1 construct: P450BM3 (CYP102A1) reductase domain BM3R with its Domcut-predicted native linker, from B. megaterium ATCC 14581 (GenBank J04832.1); made in house; host or cells: E. coli BL21 (DE3)-GOLD
# Experimental: (§1) Purified TxtE and its fusion enzymes were spectrally analyzed following a previous protocol (Ding et al. 2008). Briefly, the absorbance spectra (400-600 nm) of TxtE variants (3 M) in Tris-HCl (25 mM, pH 8) buffer were recorded with a Shimadzu UV2700 dual beam UV-Vis spectrophotometer. The ferric heme of enzymes was then saturated with carbon monoxide (Airgas) through bubbling and the spectra of the saturated enzyme solutions were recorded. Immediately, sodium dithionite solution (30 μL, 0.5 M) was added to reduce ferric ion, and reduced spectra were taken subsequently. CO reduced difference spectra of all enzymes were created by subtracting the CO binding spectra from the reduced spectra. Data were further analyzed by GraphPad Prism 4. […] Not more than 10 μl of substrate stock solutions prepared in the above buffer were added to the sample cuvette with an interval of 0.5 μl, and the spectra were recorded from 300 nm to 500 nm each time. The equal volume of buffer was added to the reference cuvette. The changes in absorbance (ΔA) were determined by subtracting the absorbance at ˜420 nm from that at ˜390 nm. Data were then fitted to Michaelis-Menten equation using GraphPad Prism 4.
# as §1, with “previous protocol.” for “previous protocol (Ding et al. 2008).”, “(3 μM)” for “(3 M)”, “to the” for “to Michaelis-Menten”, “equation of ΔA=ΔAmax[L]/(Kd+[L])” for “equation”
# [2] = Stability of NO donor NOC-5 at different pH values and temperatures; assay type: physicochemical
# Experimental: The stability of NO donor NOC-5 was first examined. Its solution was incubated at different pH value (4.5 to 9.5) and temperatures (4 to 65° C.) for 30 min. It was then used as NO donor in the P450 nitration reactions. […] To determine pH effects on the activity of TxtE and TxtEBM3R, enzyme (1.5 μM) reactions were performed in 100 mM Tris-Cl or sodium phosphate with various pH values (4.5 to 9.5) at 20° C., 300 rpm for 30 min. To determine enzyme pH stability, 5 μL of 30 μM enzyme solutions were incubated at buffers with different pH value (4.5 to 9.5). After 15 minutes, other reaction components (95 μL) were mixed to initiate nitration reactions as described above. […] Products were quantitated by HPLC as described above. Conversion rate (%) was calculated by the equation of the area of under the 4-nitro-l-tryptophan peak/the total areas of both substrate and product peaks*100. […]
# The stability of NO donor NOC-5 was first examined by incubating it in solutions of different pH values (4.5 to 9.5) and temperatures (4 to 65° C.) for 30 min. […] Products were quantitated by HPLC as described above. Peak area was determined with software installed in the Shimadzu Prominence UHPLC system. Conversion rate (%) was calculated as product (nmol)/product+substrate (nmol)×100 based on the standard curves of Trp and 4-NO2-Trp generated. […]
# [3] = target: T2, TxtE (Streptomyces scabiei, UniProt C9ZDC6); assay: Binding affinities of L-tryptophan and substituted tryptophan analogs (FIG. 29A)
# Experimental: Binding affinities and relative nitration conversions for L-tryptophan and several substituted tryptophan analogs were also assessed (FIGS. 29A-29B). […] Furthermore, the nitration activity of TxtE and TxtEBM3R was assessed. In addition to substrate, enzyme reactions typically contained NADP+, an NADPH regeneration system (glucose and glucose dehydrogenase, GDH), spinach ferredoxin (Fer) and ferredoxin reductase (Frd) as redox partners, and 3-[2-hydroxy-1-(l-methylethyl)-2-nitrosohydrazinyl]-1-propanamine (NOC-5) as an NO donor. Reverse-phase UHPLC coupled with a PDA detector and liquid chromatography-mass spectrometry (LC-MS, ESI positive) was employed to detect the nitrated products (FIG. 29B).
# [4] = target: T2, TxtE; design: inferred from the pET28 vector and Ni-NTA purification) (C); made in house; host or cells: E. coli BL21 (DE3)-GOLD; conditions: previous studies (Barry et al. 2012; Dodani et al. 2014); cited from earlier work
# [5] = target: T3, TxtE-BM3R (UniProt C9ZDC6); assay: Substrate binding affinity by UV-Vis spectral titration, TxtE-BM3R; design: species or system S. scabies 87.22 / B. megaterium ATCC 14581; conditions: Kd, […] enzyme, 25 mM Tris-HCl pH 8.0; for 4-F-DL-tryptophan total concentration of the racemic mixture used
# T3 construct: P450BM3 (CYP102A1) reductase domain BM3R with its Domcut-predicted native linker, from B. megaterium ATCC 14581 (GenBank J04832.1); made in house; host or cells: E. coli BL21 (DE3)-GOLD
# Experimental: as §1
# as §1, with “previous protocol.” for “previous protocol (Ding et al. 2008).”, “(3 μM)” for “(3 M)”, “to the” for “to Michaelis-Menten”, “equation of ΔA=ΔAmax[L]/(Kd+[L])” for “equation”
# [6] = target: T4, TxtE-RhFRed (Streptomyces scabiei, UniProt C9ZDC6); assay: Substrate binding affinity by UV-Vis spectral titration, TxtE-RhFRed; design: species or system S. scabies 87.22; conditions: […] enzyme, 25 mM Tris-HCl pH 8.0
# T4 sequence (C9ZDC6 1-406): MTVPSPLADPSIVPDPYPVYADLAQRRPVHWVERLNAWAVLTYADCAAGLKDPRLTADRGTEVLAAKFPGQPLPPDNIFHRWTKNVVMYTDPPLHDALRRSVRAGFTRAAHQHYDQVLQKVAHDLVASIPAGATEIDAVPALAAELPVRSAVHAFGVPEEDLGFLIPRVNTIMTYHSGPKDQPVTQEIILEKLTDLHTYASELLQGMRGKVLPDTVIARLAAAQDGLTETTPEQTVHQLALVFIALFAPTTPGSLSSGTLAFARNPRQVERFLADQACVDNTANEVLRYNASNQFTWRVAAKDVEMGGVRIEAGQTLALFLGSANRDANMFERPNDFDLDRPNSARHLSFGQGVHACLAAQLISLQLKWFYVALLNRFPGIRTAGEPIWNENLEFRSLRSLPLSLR
# T4 sequence (Q8KU27 445-773 partner): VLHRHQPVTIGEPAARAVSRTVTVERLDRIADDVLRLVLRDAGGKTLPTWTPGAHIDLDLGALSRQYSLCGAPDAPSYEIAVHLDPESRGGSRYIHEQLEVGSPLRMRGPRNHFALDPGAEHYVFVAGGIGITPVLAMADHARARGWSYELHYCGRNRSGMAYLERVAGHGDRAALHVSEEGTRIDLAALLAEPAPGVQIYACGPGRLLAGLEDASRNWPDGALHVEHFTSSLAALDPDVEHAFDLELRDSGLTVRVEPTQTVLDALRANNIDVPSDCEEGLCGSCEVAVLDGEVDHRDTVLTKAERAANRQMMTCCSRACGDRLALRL
# Experimental: as §1, with “The equal volume of buffer was added to the reference cuvette.” left out, “Data were then fitted to Michaelis-Menten equation using GraphPad Prism 4.” left out
# (§2) Purified TxtE and its fusion enzymes were spectrally analyzed following a previous protocol. Briefly, the absorbance spectra (400-600 nm) of TxtE variants (3 μM) in Tris-HCl (25 mM, pH 8) buffer were recorded with a Shimadzu UV2700 dual beam UV-Vis spectrophotometer. […] Data were further analyzed by GraphPad Prism 4. […]
# [7] = target: T4, TxtE-RhFRed; assay: Substrate binding affinity by UV-Vis spectral titration, TxtE-RhFRed*; design: species or system S. scabies 87.22; conditions: […] enzyme, 25 mM Tris-HCl pH 8.0
# Experimental: as §1, with “The equal volume of buffer was added to the reference cuvette.” left out, “Data were then fitted to Michaelis-Menten equation using GraphPad Prism 4.” left out
# as §2
# [8] = target: T2, TxtE; assay: Substrate binding affinity by UV-Vis spectral titration, wild type TxtE; design: inferred from the pET28 vector and Ni-NTA purification) (C); made in house; host or cells: E. coli BL21 (DE3)-GOLD; species or system S. scabies 87.22; conditions: […] enzyme, 25 mM Tris-HCl pH 8.0
# Experimental: as §1, with “The equal volume of buffer was added to the reference cuvette.” left out, “Data were then fitted to Michaelis-Menten equation using GraphPad Prism 4.” left out
# as §2
compound,measurement,setting,value
"NC(Cc1c[nH]c2cccc(F)c12)C(=O)O (racemic) [4-F-DL-tryptophan, 4-F-dl-tryptophan]",binding affinity lowered compared with native substrate L-tryptophan,[1],about 8 times
same,Kd,[1],189 ± 11.1 µM
same,binding affinity to TxtE-BM3R compared with TxtE,[1],slightly tightened
"CC(C)N(CCCN)/[N+]([O-])=N/O [NOC-5, 3-(Aminopropyl)-1-hydroxy-3-isopropyl-2-oxo-1-triazene]",stability at temperatures higher than 25° C.,"[2]; 4 to 65° C., 30 min",decomposed quickly and significantly
same,stability at different pH values,"[2]; pH 4.5 to 9.5, 30 min",stable in all tested pH values; also recorded: stable over a broad pH range; also recorded: stable at all tested pH values
O=C(O)C(=O)Cc1c[nH]c2ccccc12 [indole-3-pyruvate],binding affinity relative to L-tryptophan (FIG. 29A),[3],significantly weakened interactions
C[C@](N)(Cc1c[nH]c2ccccc12)C(=O)O [α-Me-Trp],binding affinity relative to L-tryptophan (FIG. 29A),[3],significantly weakened interactions
N[C@H](CO)Cc1c[nH]c2ccccc12 [L-tryptophanol],binding affinity relative to L-tryptophan (FIG. 29A),[3],significantly weakened interactions
N[C@H](Cc1c[nH]c2ccccc12)C(=O)O [D-tryptophan],spectral changes induced in TxtE solution,[4],unable to induce spectral changes
"N[C@@H](Cc1c[nH]c2ccc(F)cc12)C(=O)O [5-F-L-tryptophan, 5-F-l-tryptophan]",binding affinity lowered compared with native substrate L-tryptophan,[1],~3 times
same,Kd,[1],84.2 ± 4.37 µM
same,Kd,[1]; listed as 5-F-l-tryptophan,84.2 ± 4.4 µM
same,binding affinity to TxtE-BM3R compared with TxtE,[1],slightly tightened
N[C@@H](Cc1c[nH]c2ccccc12)C(=O)O [L-tryptophan],Kd,[5],20.8 µM
same,Kd,[6],18.2 µM
same,Kd,[7],24.3 µM
same,Kd,[8],24.8 µM
